{"source": "paper PMC9572521", "about": "“Synthesis, Docking Studies and Pharmacological Evaluation of Serotoninergic Ligands Containing a 5-Norbornene-2-Carboxamide Nucleus” (Molecules, 2022)", "key": {"human 5-HT2C receptor": {"biological_target": "T1, human 5-HT2C receptor (Homo sapiens, UniProt P28335)", "T1 sequence (P28335 33-458)": "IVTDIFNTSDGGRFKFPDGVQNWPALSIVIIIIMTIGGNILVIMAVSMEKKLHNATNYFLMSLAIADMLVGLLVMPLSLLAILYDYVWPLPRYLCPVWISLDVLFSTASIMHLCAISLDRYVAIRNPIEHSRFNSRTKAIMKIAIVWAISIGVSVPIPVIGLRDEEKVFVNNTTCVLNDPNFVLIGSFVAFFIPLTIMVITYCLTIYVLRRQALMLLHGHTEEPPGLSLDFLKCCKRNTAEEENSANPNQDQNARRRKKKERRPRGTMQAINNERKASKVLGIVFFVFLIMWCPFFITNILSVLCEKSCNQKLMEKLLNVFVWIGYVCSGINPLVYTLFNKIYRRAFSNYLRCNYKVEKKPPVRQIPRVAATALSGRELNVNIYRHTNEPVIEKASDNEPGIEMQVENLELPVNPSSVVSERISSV", "test": "5-HT2C competition binding assay ([3H]mesulergine, transfected cell membranes)", "details": "[3H]mesulergine, human 5-HT2C membranes; read-out: 5-HT2C Ki (95% CI)"}, "mice": {"tested_on": "mice", "test": "Elevated plus-maze test (EPM)", "type": "in vivo, mouse", "details": "60 min before the test", "protocol": "The experiments were carried out, in the Experimental Medicine Center of Medical University of Lublin, on six-week-old naive male Swiss mice, weighing 24–30 g. The mice were housed in cages, five individuals per cage in an environmentally controlled rooms (ambient temperature 22 ± 1 °C; relative humidity 50–60%; 12 h light/dark cycle, lights on at 8:00). Standard laboratory food(LSM-Agropol-Motycz, Lublin, Poland) and filtered water were available ad libitum. All the experimental procedures were carried out, according to the National Institute of Health Guidelines for the Care and Use of Laboratory Animals and to the European Community Council Directive for the Care and Use of Laboratory Animals of 22 September 2010 (2010/63/EU) and approved by the Local Ethics Committee for Animal Experimentation in Lublin. The investigated compounds (Norbo-4, Norbo-8, Norbo-10, Norbo-14, Norbo-18 and Norbo-20) in all tests were administered intraperitoneally (i.p.), dissolved in dimethyl sulfoxide (DMSO, final concentration of 0.1%) and then diluted by aqueous solution of 0.5% methylcellulose (tylose) and injected 60 min before the tests. […] All compounds were given in a volume of 10 mL/kg to mice. The control animals received an equivalent volume of the solvent at the respective time before the tests. All the experiments were conducted in the light phase between 09.00 a.m. and 14.00 p.m. The experiments were performed by an observer unaware of the treatment administered. The EPM studies were carried out on mice according to the method of Lister. The EPM apparatus was made of plexiglass and consisted of two open (30 × 5 cm) and two enclosed (30 × 5 × 15 cm) arms. The arms extended from a central platform of 5 × 5 cm. The apparatus was mounted on a plexiglass base, raising it 38.5 cm above the floor, and illuminated by a red light. The test consisted of placing a mouse in the center of the apparatus (facing an open arm) and allowing it to freely explore. The number of entries into the open arms and the time spent in these arms were scored for a 5 min test period. An entry was defined as placing all four paws within the boundaries of the arm. The following measures were obtained from the test: the total number of arm entries; the percentage of arm entries into the open arms; and the time spent in the open arms expressed as a percentage of the time spent in both the open and closed arms. Anxiolytic activity was indicated by increases in the time spent in open arms and in the number of open arm entries. The total number of entries into either type of arm was used additionally as a measure of overall motor activity."}}, "note": "Entries after “also recorded” stand apart in the source; their conditions may differ.", "data": [{"smiles": "Cc1cccc(N2CCN(CCCNC(=O)C3CC4C=CC3C4)CC2)c1C", "note": "(stereo not drawn) [Norbo-4, endo-N-(3-(4-(2,3-dimethylphenyl)piperazin-1-yl)propyl)bicyclo[2.2.1]hept-5-ene-2-carboxamide]", "values": [{"measurement": "Ki", "setting": "human 5-HT2C receptor", "result": 2090, "unit": "nM"}, {"measurement": "percentage of time spent in open arms (EPM)", "setting": "mice; 3.75 mg/kg i.p.", "result": "significant increase in time spent in open arms; also recorded: increased the percentage of open arm exploration time"}, {"measurement": "percentage of the open arm entries (EPM)", "setting": "mice; 15 mg/kg i.p.", "result": "increase the percentage of open arm entries"}, {"measurement": "percentage of time spent in open arms (EPM)", "setting": "mice; 15 mg/kg i.p.", "result": "significant increase in time spent in open arms; also recorded: increased the percentage of open arm exploration time"}]}]}
